Results published in the NIST ThermoML archive (doi:10.1021/acs.jced.8b00403).
± gives the expanded uncertainty stated by the source.

Experiments:
[1] = refractive index (Na D-line) (dimensionless); conditions: 101.33 kPa, Liquid, Standard Abbe refractometry
[2] = 101.33 kPa, Liquid; for viscosity: Concentric cylinders viscometry; for mass density: Vibrating tube method
[3] = refractive index (Na D-line) (dimensionless); wn = mass fraction of the nth substance listed; conditions: 101.33 kPa, Liquid, Standard Abbe refractometry, w2 = 0
[4] = wn = mass fraction of the nth substance listed; conditions: 101.33 kPa, Liquid, w2 = 0; for viscosity: Concentric cylinders viscometry; for mass density: Vibrating tube method

CC(O)CO (stereo unspecified) [1,2-propanediol] gave a refractive index ([1]; 278.15 K) of 1.438 ± 0.001, a refractive index ([1]; 283.15 K) of 1.4364 ± 0.001 and a refractive index ([1]; 288.15 K) of 1.4348 ± 0.001. It also gave a refractive index ([1]; 293.15 K) of 1.4332 ± 0.001, a refractive index ([1]; 298.15 K) of 1.4315 ± 0.001 and a refractive index ([1]; 303.15 K) of 1.4299 ± 0.001. It also gave a refractive index ([1]; 308.15 K) of 1.4281 ± 0.001, a refractive index ([1]; 313.15 K) of 1.4264 ± 0.001 and a refractive index ([1]; 318.15 K) of 1.4247 ± 0.001. For the same compound, the viscosity ([2]; 253.15 K) was 1772.4 ± 540 mPa·s, the mass density ([2]; 253.15 K) was 1065.8 ± 8 kg/m3 and the viscosity ([2]; 258.15 K) was 1038.3 ± 310 mPa·s. It also gave a mass density ([2]; 258.15 K) of 1062.2 ± 8 kg/m3, a viscosity ([2]; 263.15 K) of 631.08 ± 190 mPa·s and a mass density ([2]; 263.15 K) of 1058.6 ± 8 kg/m3. The viscosity ([2]; 268.15 K) was 396.99 ± 120 mPa·s, the mass density ([2]; 268.15 K) was 1054.9 ± 8 kg/m3 and the viscosity ([2]; 273.15 K) was 258 ± 78 mPa·s. It also gave a mass density ([2]; 273.15 K) of 1051.3 ± 8 kg/m3, a viscosity ([2]; 283.15 K) of 116.68 ± 35 mPa·s and a mass density ([2]; 283.15 K) of 1042.9 ± 8 kg/m3. It also gave a viscosity ([2]; 293.15 K) of 59.75 ± 18 mPa·s, a mass density ([2]; 293.15 K) of 1035.5 ± 8 kg/m3 and a viscosity ([2]; 303.15 K) of 33.26 ± 10 mPa·s. For the same compound, the mass density ([2]; 303.15 K) was 1028.1 ± 8 kg/m3, the viscosity ([2]; 313.15 K) was 19.92 ± 6 mPa·s and the mass density ([2]; 313.15 K) was 1020.6 ± 8 kg/m3. The viscosity ([2]; 323.15 K) was 12.68 ± 3.8 mPa·s, the mass density ([2]; 323.15 K) was 1013 ± 8 kg/m3 and the viscosity ([2]; 333.15 K) was 8.498 ± 2.5 mPa·s. The mass density ([2]; 333.15 K) was 1005.3 ± 8 kg/m3, the viscosity ([2]; 343.15 K) was 5.95 ± 1.8 mPa·s and the mass density ([2]; 343.15 K) was 997.7 ± 8 kg/m3. For the same compound, the viscosity ([2]; 353.15 K) was 4.332 ± 1.3 mPa·s and the mass density ([2]; 353.15 K) was 989.5 ± 8 kg/m3.

In the case of OCCCO [propan-1,3-diol], the refractive index ([1]; 278.15 K) is reported as 1.4436 ± 0.001, the refractive index ([1]; 283.15 K) is reported as 1.4423 ± 0.001 and the refractive index ([1]; 288.15 K) is reported as 1.4409 ± 0.001. The refractive index ([1]; 293.15 K) was 1.4395 ± 0.001, the refractive index ([1]; 298.15 K) was 1.4381 ± 0.001 and the refractive index ([1]; 303.15 K) was 1.4368 ± 0.001. The refractive index ([1]; 308.15 K) was 1.4354 ± 0.001, the refractive index ([1]; 313.15 K) was 1.434 ± 0.001 and the refractive index ([1]; 318.15 K) was 1.4325 ± 0.001. It also gave a viscosity ([2]; 253.15 K) of 574.39 ± 170 mPa·s, a mass density ([2]; 253.15 K) of 1078.2 ± 8 kg/m3 and a viscosity ([2]; 258.15 K) of 409.88 ± 120 mPa·s. It also gave a mass density ([2]; 258.15 K) of 1075.4 ± 8 kg/m3, a viscosity ([2]; 263.15 K) of 289.5 ± 87 mPa·s and a mass density ([2]; 263.15 K) of 1072.3 ± 8 kg/m3. It also gave a viscosity ([2]; 268.15 K) of 207.88 ± 62 mPa·s, a mass density ([2]; 268.15 K) of 1069 ± 8 kg/m3 and a viscosity ([2]; 273.15 K) of 152.75 ± 46 mPa·s. It also gave a mass density ([2]; 273.15 K) of 1065.9 ± 8 kg/m3, a viscosity ([2]; 283.15 K) of 86.48 ± 26 mPa·s and a mass density ([2]; 283.15 K) of 1059.8 ± 8 kg/m3. It also gave a viscosity ([2]; 293.15 K) of 52.01 ± 16 mPa·s, a mass density ([2]; 293.15 K) of 1053.6 ± 8 kg/m3 and a viscosity ([2]; 303.15 K) of 32.92 ± 9.9 mPa·s. It also gave a mass density ([2]; 303.15 K) of 1047.4 ± 8 kg/m3, a viscosity ([2]; 313.15 K) of 21.79 ± 6.5 mPa·s and a mass density ([2]; 313.15 K) of 1041.1 ± 8 kg/m3. The viscosity ([2]; 323.15 K) was 15 ± 4.5 mPa·s, the mass density ([2]; 323.15 K) was 1034.8 ± 8 kg/m3 and the viscosity ([2]; 333.15 K) was 10.72 ± 3.2 mPa·s. The mass density ([2]; 333.15 K) was 1028.4 ± 8 kg/m3, the viscosity ([2]; 343.15 K) was 7.855 ± 2.4 mPa·s and the mass density ([2]; 343.15 K) was 1021.9 ± 8 kg/m3. For the same compound, the viscosity ([2]; 353.15 K) was 5.916 ± 1.8 mPa·s and the mass density ([2]; 353.15 K) was 1015.3 ± 8 kg/m3.

Work on O [water] yielded a refractive index ([1]; 278.15 K) of 1.3341 ± 0.001, a refractive index ([1]; 283.15 K) of 1.3338 ± 0.001 and a refractive index ([1]; 288.15 K) of 1.3335 ± 0.001. For the same compound, the refractive index ([1]; 293.15 K) was 1.3331 ± 0.001, the refractive index ([1]; 298.15 K) was 1.3326 ± 0.001 and the refractive index ([1]; 303.15 K) was 1.332 ± 0.001. It also gave a refractive index ([1]; 308.15 K) of 1.3313 ± 0.001, a refractive index ([1]; 313.15 K) of 1.3306 ± 0.001 and a refractive index ([1]; 318.15 K) of 1.3298 ± 0.001. The viscosity ([2]; 273.15 K) was 1.825 ± 0.55 mPa·s, the mass density ([2]; 273.15 K) was 1000.8 ± 8 kg/m3 and the viscosity ([2]; 283.15 K) was 1.345 ± 0.4 mPa·s. It also gave a mass density ([2]; 283.15 K) of 1000.6 ± 8 kg/m3, a viscosity ([2]; 293.15 K) of 1.041 ± 0.31 mPa·s and a mass density ([2]; 293.15 K) of 999.3 ± 8 kg/m3. The viscosity ([2]; 303.15 K) was 0.8467 ± 0.25 mPa·s, the mass density ([2]; 303.15 K) was 996.8 ± 8 kg/m3 and the viscosity ([2]; 313.15 K) was 0.6997 ± 0.21 mPa·s. It also gave a mass density ([2]; 313.15 K) of 993.2 ± 8 kg/m3, a viscosity ([2]; 323.15 K) of 0.5967 ± 0.18 mPa·s and a mass density ([2]; 323.15 K) of 989 ± 8 kg/m3. The viscosity ([2]; 333.15 K) was 0.5091 ± 0.15 mPa·s, the mass density ([2]; 333.15 K) was 984.4 ± 8 kg/m3 and the viscosity ([2]; 343.15 K) was 0.4355 ± 0.13 mPa·s. The mass density ([2]; 343.15 K) was 978.6 ± 8 kg/m3, the viscosity ([2]; 353.15 K) was 0.3911 ± 0.12 mPa·s and the mass density ([2]; 353.15 K) was 972.7 ± 8 kg/m3.

Work on O [water] + CC(O)CO yielded a refractive index ([3]; 278.15 K) of 1.3341 ± 0.001, a refractive index ([3]; 283.15 K) of 1.3338 ± 0.001 and a refractive index ([3]; 288.15 K) of 1.3335 ± 0.001. For the same compound, the refractive index ([3]; 293.15 K) was 1.3331 ± 0.001, the refractive index ([3]; 298.15 K) was 1.3326 ± 0.001 and the refractive index ([3]; 303.15 K) was 1.332 ± 0.001. For the same compound, the refractive index ([3]; 308.15 K) was 1.3313 ± 0.001, the refractive index ([3]; 313.15 K) was 1.3306 ± 0.001 and the refractive index ([3]; 318.15 K) was 1.3298 ± 0.001. The viscosity ([4]; 273.15 K) was 1.825 ± 0.55 mPa·s, the mass density ([4]; 273.15 K) was 1000.8 ± 8 kg/m3 and the viscosity ([4]; 283.15 K) was 1.345 ± 0.4 mPa·s. It also gave a mass density ([4]; 283.15 K) of 1000.6 ± 8 kg/m3, a viscosity ([4]; 293.15 K) of 1.041 ± 0.31 mPa·s and a mass density ([4]; 293.15 K) of 999.3 ± 8 kg/m3. The viscosity ([4]; 303.15 K) was 0.8467 ± 0.25 mPa·s, the mass density ([4]; 303.15 K) was 996.8 ± 8 kg/m3 and the viscosity ([4]; 313.15 K) was 0.6997 ± 0.21 mPa·s. For the same compound, the mass density ([4]; 313.15 K) was 993.2 ± 8 kg/m3, the viscosity ([4]; 323.15 K) was 0.5967 ± 0.18 mPa·s and the mass density ([4]; 323.15 K) was 989 ± 8 kg/m3. For the same compound, the viscosity ([4]; 333.15 K) was 0.5091 ± 0.15 mPa·s, the mass density ([4]; 333.15 K) was 984.4 ± 8 kg/m3 and the viscosity ([4]; 343.15 K) was 0.4355 ± 0.13 mPa·s. The mass density ([4]; 343.15 K) was 978.6 ± 8 kg/m3, the viscosity ([4]; 353.15 K) was 0.3911 ± 0.12 mPa·s and the mass density ([4]; 353.15 K) was 972.7 ± 8 kg/m3.

With O [water] + OCCCO the refractive index ([3]; 278.15 K) was 1.3341 ± 0.001, the refractive index ([3]; 283.15 K) was 1.3338 ± 0.001 and the refractive index ([3]; 288.15 K) was 1.3335 ± 0.001. The refractive index ([3]; 293.15 K) was 1.3331 ± 0.001, the refractive index ([3]; 298.15 K) was 1.3326 ± 0.001 and the refractive index ([3]; 303.15 K) was 1.332 ± 0.001. For the same compound, the refractive index ([3]; 308.15 K) was 1.3313 ± 0.001, the refractive index ([3]; 313.15 K) was 1.3306 ± 0.001 and the refractive index ([3]; 318.15 K) was 1.3298 ± 0.001. It also gave a viscosity ([4]; 273.15 K) of 1.825 ± 0.55 mPa·s, a mass density ([4]; 273.15 K) of 1000.8 ± 8 kg/m3 and a viscosity ([4]; 283.15 K) of 1.345 ± 0.4 mPa·s. It also gave a mass density ([4]; 283.15 K) of 1000.6 ± 8 kg/m3, a viscosity ([4]; 293.15 K) of 1.041 ± 0.31 mPa·s and a mass density ([4]; 293.15 K) of 999.3 ± 8 kg/m3. It also gave a viscosity ([4]; 303.15 K) of 0.8467 ± 0.25 mPa·s, a mass density ([4]; 303.15 K) of 996.8 ± 8 kg/m3 and a viscosity ([4]; 313.15 K) of 0.6997 ± 0.21 mPa·s. For the same compound, the mass density ([4]; 313.15 K) was 993.2 ± 8 kg/m3, the viscosity ([4]; 323.15 K) was 0.5967 ± 0.18 mPa·s and the mass density ([4]; 323.15 K) was 989 ± 8 kg/m3. It also gave a viscosity ([4]; 333.15 K) of 0.5091 ± 0.15 mPa·s, a mass density ([4]; 333.15 K) of 984.4 ± 8 kg/m3 and a viscosity ([4]; 343.15 K) of 0.4355 ± 0.13 mPa·s. It also gave a mass density ([4]; 343.15 K) of 978.6 ± 8 kg/m3, a viscosity ([4]; 353.15 K) of 0.3911 ± 0.12 mPa·s and a mass density ([4]; 353.15 K) of 972.7 ± 8 kg/m3.
